Experimental data taken from patent publication US12471620B2, “Use of isothiocyanate in smokeless tobacco products” (Gamot Global Pte. Ltd., priority 2019, dated 2025).

Test system: A549 cells
Assay: CellEvent Caspase 3/7 green detection assay of apoptosis, brightfield and fluorescent imaging
Assay type: cell-based, human
Conditions: for concentration at which exponentially more cells undergo apoptosis than at lower concentrations: at 48 hours (AITC, combinations) or earlier than at lower concentrations; for induction of cell death (apoptosis): daily treatment, imaged at 24 to 96 hours (combinations up to 72 hours)
Experimental: A549 cells were plated into 48 well culture plates at a density of 3.0×10^4 cells/cm^2. Cells were dissociated with 0.05% trypsin EDTA following a 5-minute incubation at 37° C., neutralized in a 1:1 ratio of standard medium and counted using a hemocytometer prior to plating. All wells were settled overnight prior to addition of one of the following treatment compounds: AITC, PEITC, Thymoquinone, or Resveratrol. All treatments were performed within 24 hours following initial plating.
Treatment of the A549 cells occurred at the following time points and concentrations: AITC—25 μM, 50 μM and 100 μM for 24, 48 and 96 hours. PEITC—25 μM, 50 μM, 100 μM and 200 μM for 24, 48 and 96 hours. TQ—25 μM, 50 μM, 10 0 μM and 200 μM for 24, 48 and 96 hours. Resveratrol—25 μM, 50 μM and 100 μM for 48 and 96 hours. DMSO was used to dissolve each compound, and cells treated with DMSO without any of tested compounds served as a control. Treated cells received daily treatments using the same concentrations until the last time point of the experiment.
Apoptosis was detected using the CellEvent Caspase 3/7 green detection kit/assay from Thermofisher Scientific. Cells were incubated with diluted assay reagent for 30 minutes at 37° C. prior to analysis, and imaged by a brightfield and a fluorescent microscopes.
CellEvent Caspase-3/7 Green Detection Reagent is intrinsically non-fluorescent, as the four amino acid peptide (DEVD peptide) inhibits the ability of the dye to bind to DNA. However, following activation of caspase-3/7 in apoptotic cells, the DEVD peptide is cleaved, enabling the dye to bind to DNA and produce a bright, fluorogenic response. The fluorescent emission of the dye ˜530 can be observed under a fluorescent microscope.

| SMILES | concentration at which exponentially more cells undergo apoptosis than at lower concentrations [µM] | induction of cell death (apoptosis) | apoptotic effect at 25 μM relative to higher concentrations (25 μM) | onset of apoptotic effects (effects only observed at 48 and 96 hours) |
| --- | --- | --- | --- | --- |
| C=CCN=C=S [AITC, Allyl Isothiocyanate] | ≥ 50 | induces cancer cell death |  |  |
| Oc1ccc(C=Cc2cc(O)cc(O)c2)cc1 [Resveratrol] | ≥ 50 | induces cell death | reduced | delayed relative to other compounds |
| CC1=CC(=O)C(C(C)C)=CC1=O [Thymoquinone] | ≥ 100 | induces cell death |  |  |
